{"source": "patent US20100286220A1", "about": "“HNF4alpha ANTAGONISTS AND METHODS OF USE” (Burnham Institute for Medical Research, priority 2009, published 2010)", "key": {"[1]": {"tested_on": "endogenous insulin message", "experiment": "Secondary confirmatory assay, endogenous insulin message in T6PNE cells", "assay_type": "cell-based, human"}, "human PPARγ": {"biological_target": "T1, human PPARγ (Homo sapiens, UniProt P37231)", "T1 construct": "expressed in transfected cells; host or cells: HeLa cells", "T1 sequence (P37231 1-505)": "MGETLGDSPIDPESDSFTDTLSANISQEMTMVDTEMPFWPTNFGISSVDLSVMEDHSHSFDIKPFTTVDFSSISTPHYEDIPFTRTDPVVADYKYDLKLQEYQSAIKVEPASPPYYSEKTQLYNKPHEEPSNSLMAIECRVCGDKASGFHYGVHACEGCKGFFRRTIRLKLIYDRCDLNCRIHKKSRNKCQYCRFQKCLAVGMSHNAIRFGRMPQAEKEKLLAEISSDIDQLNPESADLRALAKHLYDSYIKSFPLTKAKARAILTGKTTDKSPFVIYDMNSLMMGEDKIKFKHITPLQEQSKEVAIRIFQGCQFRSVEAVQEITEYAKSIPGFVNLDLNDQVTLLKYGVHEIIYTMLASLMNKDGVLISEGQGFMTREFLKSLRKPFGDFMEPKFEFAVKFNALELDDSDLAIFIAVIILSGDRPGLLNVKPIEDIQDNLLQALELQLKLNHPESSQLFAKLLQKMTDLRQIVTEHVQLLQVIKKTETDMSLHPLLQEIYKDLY", "experiment": "PPAR response element (PPRE)-luciferase reporter assay in HeLa cells", "assay_type": "cell-based", "conditions": "PPRE reporter plasmid with or without human PPARγ expression vector", "description": "The core structure of BIM5078, benzimidazole, is related to known PPARγ compounds that functions as agonists or antagonists. BIM5078 was used in a PPAR response element (PPRE)-luciferase reporter assay. HeLa cells were co-transfected with a PPAR response element (PPRE) reporter plasmid and a human PPARγ expression vector. […] Known PPARγ agonists were used as positive controls. The same PPARγ agonist compounds were tested on T6PNE ins-eGFP for their ability to repress the insulin promoter. Known PPARγ agonists are unable to suppress insulin gene transcription. Similarly, other PPAR agonists of the alpha and delta class were also negative in the assay. However, because HNF4α also binds to PPREs, BIM5078's ability to bind HNF4α was further investigated."}, "[2]": {"experiment": "HBV surface antigen levels in Huh7 cells transfected with wild-type HBV construct (pWTD)", "assay_type": "cell-based, Hepatitis B virus", "excerpt": "(§1) The HBsAg is seen as doublet bands with different glycosylation forms (GP33 and GP36).\n(§2) BIM5078 is an HNF4α antagonist and can be useful in treatment of diseases involving HNF4α modulation. There are a number of HNF4α binding sites in the HBV genome, including the enhancer region, the core promoter and the polymerase. BIM5078 can downregulate the core and polymerase, and it has been discovered that it can effectively suppress or eliminate HBV proliferation. Also, the HNF4α binding sites are well-conserved and no mutations of these sites have yet been discovered in the various HBV strains. Thus, targeting HNF4α can circumvent the resistance seen with traditional therapies. […] The ability of the HNF4α antagonist BIM5078 to reduce viral production in Huh7 cells transfected with the wild-type HBV construct (pWTD) was tested. […] The large decrease in the two glycosylation forms of the surface antigen was visualized as doublet bands (FIG. 9)."}, "HBV": {"tested_on": "HBV", "experiment": "HBV surface antigen levels in Huh7 cells transfected with wild-type HBV construct (pWTD)", "assay_type": "cell-based, Hepatitis B virus", "conditions": "GP33 and GP36 doublet bands", "excerpt": "as §1, §2"}, "HNF1α transcription": {"tested_on": "HNF1α transcription", "experiment": "HNF1α transcription", "assay_type": "cell-based", "description": "HNF1α is a downstream target of HNF4α and has a known binding site on the human insulin gene promoter. […] It is unclear whether HNF4α is modulating the insulin promoter directly or indirectly through a downstream target. Overexpression of HNF1α or HNF4α would overcome the repressive effects of BIM5078. The repressive effect of BIM5078 was lost when it was added to T6PNE cells with high levels of induced E47 (FIG. 8). High E47 levels are thought to resemble the normal state of a β-cell while low levels of E47 to simulate the stress condition."}, "HNF4α": {"biological_target": "T2, HNF4α (Homo sapiens, UniProt P41235)", "T2 sequence (P41235 1-474)": "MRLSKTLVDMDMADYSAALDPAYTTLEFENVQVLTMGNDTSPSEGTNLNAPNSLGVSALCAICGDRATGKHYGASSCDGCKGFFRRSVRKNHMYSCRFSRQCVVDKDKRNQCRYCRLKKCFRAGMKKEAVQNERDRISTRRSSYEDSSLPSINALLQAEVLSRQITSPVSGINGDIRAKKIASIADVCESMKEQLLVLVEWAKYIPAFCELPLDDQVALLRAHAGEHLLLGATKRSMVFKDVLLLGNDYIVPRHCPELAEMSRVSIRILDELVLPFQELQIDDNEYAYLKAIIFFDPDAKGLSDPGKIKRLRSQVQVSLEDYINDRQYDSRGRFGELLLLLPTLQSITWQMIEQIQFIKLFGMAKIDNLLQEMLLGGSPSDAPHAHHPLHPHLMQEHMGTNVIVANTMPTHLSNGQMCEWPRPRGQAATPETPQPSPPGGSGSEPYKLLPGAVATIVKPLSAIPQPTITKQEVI", "experiment": "HNF4α subcellular localization", "assay_type": "cell-based", "excerpt": "Many ligands for nuclear receptor subfamilies induce the translocation of their receptors between the cytoplasm and the nucleus."}, "[3]": {"conditions": "hoFH patients, ezetimibe 10 mg/day added to statin 80 mg/day; cited from earlier work"}, "human insulin promoter": {"tested_on": "human insulin promoter", "experiment": "High-throughput screen / confirmatory assay, insulin promoter-GFP (ins-GFP) transgene in T6PNE cells", "assay_type": "cell-based", "conditions": "T6PNE ins-eGFP cells", "excerpt": "Primary β-cells are in short supply and have a strong tendency to undergo apoptosis when manipulated in culture. Therefore, a β-cell model was used for the studies regarding β-cell growth and differentiation. T6PNE cells were derived from human fetal islets and were engineered to express the transcription factors PDX-1, NeuroD1, and E47, which are all present in the human β-cell. It was observed that induction of E47 upregulates the expression of many genes associated with β-cell function, including insulin. Consistent with what occurs in primary β-cells, it also was observed that E47 induction caused growth arrest in the cell line. Therefore, E47 was […] in T6PNE cells. […] Therefore, expression in the transfunctioned cell can be used as a baseline so both up and down regulators of the insulin promoter can be monitored in the screening assays. […] Insulin expression was monitored and visualized by the ins-GFP transgene. Hits were determined and dependent on the ability to differentiate between a baseline condition and the corresponding positive or negative control. […]\nThe HTS was performed in a 384-well format where primed T6PNE cells express the ins-GFP transgene and the test compound was added 24 hours later. […] The Images were then analyzed using algorithms (Jeff Price at the Screening Center at the Burnham Institute). […]"}}, "note": "Entries after “also recorded” stand apart in the source; their conditions may differ.", "data": [{"compound": "4-hydroxytamoxifen [reference compound]", "values": [{"measurement": "endogenous insulin message with E47 induction", "setting": "[1]; T6PNE cells with inducible E47", "value": "upregulated in a dose-dependent manner"}]}, {"compound": "Cc1nc2ccccc2n1S(=O)(=O)c1cc([N+](=O)[O-])ccc1Cl", "note": "[BIM5078, 1-(2-Chloro-5-nitrophenylsulfonyl)-2-methyl-1H-benzo[d]imidazole]", "values": [{"measurement": "repressive effect on insulin expression at high E47", "setting": "[1]; T6PNE cells with high levels of induced E47 (high 4-hydroxytamoxifen)", "value": "lost"}, {"measurement": "activation of PPRE reporter", "setting": "human PPARγ", "value": "activated the PPRE"}, {"measurement": "actin levels", "setting": "[2]", "value": "no dependence"}, {"measurement": "HBV surface antigen (HBsAg) levels", "setting": "HBV", "value": "decreased their levels of surface antigen; also recorded: decreased the HBsAg protein expression"}, {"measurement": "HNF1α transcription", "setting": "HNF1α transcription", "value": "decrease the HNF1α transcription"}, {"measurement": "HNF4α localization upon addition of compound", "setting": "HNF4α", "value": "localized entirely in the nucleus"}]}, {"compound": "O=C1[C@H](CC[C@H](O)c2ccc(F)cc2)[C@@H](c2ccc(O)cc2)N1c1ccc(F)cc1", "note": "[ezetimibe]", "values": [{"measurement": "total reduction of LDL-C levels", "setting": "[3]", "value": 27, "unit": "%"}]}, {"compound": "CCCCCCCCCCCCCCCC(=O)O", "note": "[palmitic acid]", "values": [{"measurement": "insulin promoter activity / insulin gene transcription, effect in words", "setting": "human insulin promoter", "value": "suppresses the insulin promoter activity in a dose-dependent fashion"}]}]}
